Consider 10 compounds from patent US11673897B2, “Compounds for the treatment of kinase-dependent disorders” (Exelixis, Inc., priority 2018, dated 2023).

What all share (assay type): cell-based
For assay [1], the target named is KDR (Homo sapiens (Human), UniProt P35968). Put plainly: KDR autophosphorylation ELISA in HUVEC cells. The conditions noted are these: cellular, VEGF165-stimulated, phospho-KDR ELISA. The protocol: Human umbilical vein endothelial cells or HUVEC (Lonza #C2519A) were seeded at 2×10^4 cells/well onto 96-well plates (Corning #3904), in EGM-2 growth medium (Lonza #CC-3162) containing 1% Penicillin Streptomycin (Thermo Fisher #15140-122). HUVEC cells were incubated at 37° C., 5% CO2 for 24 h and then starved for 24 h in serum-free EBM-2 basal medium (Lonza #CC-3156) containing 1% Penicillin Streptomycin. Test compounds were serially diluted to produce an 8-point dose curve in fresh serum-free medium to a final concentration of 0.3% DMSO (vehicle) and added to the cells and incubated for 1 h. Cells were then stimulated with 100 ng/mL recombinant human VEGF165 (R&D Systems #293-VE-500) for 5 min, washed with cold PBS, and immediately lysed with 130 μL of cold 1× lysis buffer [20 mM Tris, 137 mM sodium chloride, 2 mM EDTA, 10% glycerol, 1% NP-40 alternative, 1 mM activated sodium orthovanadate, 1 mM PefaBloc SC (Sigma-Aldrich #11429868001), protease/phosphatase inhibitor tablet (Thermo Fisher #A32959)]. Lysates were collected and 100 μL/well added into the human phospho-KDR DuoSet IC ELISA (R&D Systems #DYC1766-2). Assay was performed according to manufacturer's instructions and sample phospho-KDR concentrations were extrapolated using human phospho-KDR control (R&D Systems #841421) as a standard. Positive control wells (100% activity) contained VEGF165-stimulated, DMSO-treated cell lysates. Negative control wells (0% activity) contained non-stimulated cell lysates. IC50 values were calculated by nonlinear regression analysis using a 4-parameter logistic curve fit in ActivityBase XE (IDBS).
Sequence of KDR (P35968 20-1356): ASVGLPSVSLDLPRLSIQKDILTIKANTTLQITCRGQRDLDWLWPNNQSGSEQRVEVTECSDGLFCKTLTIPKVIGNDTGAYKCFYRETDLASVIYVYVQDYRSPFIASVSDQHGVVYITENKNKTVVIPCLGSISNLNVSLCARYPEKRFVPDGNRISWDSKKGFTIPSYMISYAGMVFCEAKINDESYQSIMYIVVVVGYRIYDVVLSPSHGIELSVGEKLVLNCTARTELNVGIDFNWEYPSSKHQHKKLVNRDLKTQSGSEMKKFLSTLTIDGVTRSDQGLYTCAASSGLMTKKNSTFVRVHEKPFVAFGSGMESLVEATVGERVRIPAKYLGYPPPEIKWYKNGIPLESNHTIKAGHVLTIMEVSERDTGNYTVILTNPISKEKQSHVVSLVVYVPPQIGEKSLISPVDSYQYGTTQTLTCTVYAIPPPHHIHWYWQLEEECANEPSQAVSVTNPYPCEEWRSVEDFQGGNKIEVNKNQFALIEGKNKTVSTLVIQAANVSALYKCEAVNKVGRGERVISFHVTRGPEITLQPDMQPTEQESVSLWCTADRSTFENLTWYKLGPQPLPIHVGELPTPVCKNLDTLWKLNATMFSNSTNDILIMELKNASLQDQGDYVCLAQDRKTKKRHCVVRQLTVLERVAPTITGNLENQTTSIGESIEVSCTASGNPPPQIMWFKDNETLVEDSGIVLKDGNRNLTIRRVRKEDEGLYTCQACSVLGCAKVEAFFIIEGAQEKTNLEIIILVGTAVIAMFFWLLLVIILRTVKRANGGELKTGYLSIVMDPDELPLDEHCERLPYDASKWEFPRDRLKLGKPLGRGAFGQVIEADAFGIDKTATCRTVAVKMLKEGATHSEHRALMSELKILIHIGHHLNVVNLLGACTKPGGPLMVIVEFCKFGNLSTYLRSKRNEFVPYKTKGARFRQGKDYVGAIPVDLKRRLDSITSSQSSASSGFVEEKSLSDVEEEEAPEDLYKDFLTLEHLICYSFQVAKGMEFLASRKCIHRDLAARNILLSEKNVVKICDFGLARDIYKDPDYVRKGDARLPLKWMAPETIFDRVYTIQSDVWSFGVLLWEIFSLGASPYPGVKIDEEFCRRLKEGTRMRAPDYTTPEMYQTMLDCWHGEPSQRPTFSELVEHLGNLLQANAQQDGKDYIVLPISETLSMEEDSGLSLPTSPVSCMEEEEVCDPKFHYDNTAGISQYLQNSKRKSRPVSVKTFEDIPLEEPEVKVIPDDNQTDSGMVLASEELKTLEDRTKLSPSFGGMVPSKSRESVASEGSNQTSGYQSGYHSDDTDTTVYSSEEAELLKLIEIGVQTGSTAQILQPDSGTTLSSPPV
(In general: In an ELISA, binding on a coated surface is turned into a signal by an enzyme label.)

Assay [2] addresses AXL (Homo sapiens (Human), UniProt P30530). Put plainly: AXL autophosphorylation ELISA in A-172 cells. The following applies: cellular, Gas6-stimulated, phospho-AXL ELISA. The procedure:
A-172 glioblastoma cells (ATCC #CRL-1620) were seeded at 2.5×10^5 cells/well onto 24-well plates (Greiner #662165), in […] (Thermo Fisher #11995-040) containing 10% FBS (Thermo Fisher #26140-079), […] (Thermo Fisher #11140-050), […] (Thermo Fisher #35050-061), and 1% Penicillin Streptomycin (Thermo Fisher #15140-122). A-172 cells were incubated at 37° C., […] for 24 hand then starved for 24 h in serum-free medium. Test compounds were serially diluted to produce an 8-point dose curve in fresh serum-free medium to a final concentration of 0.3% DMSO (vehicle) and added to the cells and incubated for 1 h. Cells were then stimulated with 1 μg/mL recombinant human Gas6 (R&D Systems #885-GSB-500) for 15 min, washed with cold PBS, and immediately lysed with 150 μL of cold 1× lysis buffer [20 mM Tris, 137 mM sodium chloride, 2 mM EDTA, 10% glycerol, 1% NP-40 alternative, 1 mM activated sodium orthovanadate, 1 mM PefaBloc SC (Sigma-Aldrich #11429868001), protease/phosphatase inhibitor tablet (Thermo Fisher #A32959)]. Lysates were collected and 100 μL/well added into the human phospho-AXL DuoSet IC ELISA (R&D Systems #DYC2228-2). Assay was performed according to manufacturer's instructions and sample phospho-AXL concentrations were extrapolated using human phospho-AXL control (R&D Systems #841645) as a standard. Positive control wells (100% activity) contained Gas6-stimulated, DMSO-treated cell lysates. Negative control wells (0% activity) contained Gas6-stimulated, reference inhibitor-treated cell lysates. IC50 values were calculated by nonlinear regression analysis using a 4-parameter logistic curve fit in ActivityBase XE (IDBS).

Assay [3] addresses Met (Homo sapiens (Human), UniProt P08581). The experiment in a line: Met autophosphorylation ELISA in PC-3 cells. The following applies: cellular, HGF-stimulated, phospho-Met ELISA, read-out: c-Met IC50. The protocol:
PC-3 prostate cancer cells (ATCC #CRL-1435) were seeded at 4×10^4 cells/well onto 24-well plates (Greiner #662165), in DMEM (Thermo Fisher #11995-040) containing 10% FBS (Thermo Fisher #26140-079), 1% MEM NEAA (Thermo Fisher #11140-050), 1% GlutaMax (Thermo Fisher #35050-061), and 1% Penicillin Streptomycin (Thermo Fisher #15140-122). PC-3 cells were incubated at 37° C., 5% CO2 for 24 h and then starved for 3 h in serum-free medium. Test compounds were serially diluted to produce an 8-point dose curve in fresh serum-free medium to a final concentration of 0.3% DMSO (vehicle) and added to the cells and incubated for 1 h. Cells were then stimulated with 100 ng/mL recombinant human HGF (R&D Systems #294-HG-250) for 10 min, washed with cold PBS, and immediately lysed with 130 μL of cold 1× lysis buffer [20 mM Tris, 137 mM sodium chloride, 2 mM EDTA, 10% glycerol, 1% NP-40 alternative, 1 mM activated sodium orthovanadate, 1 mM PefaBloc SC (Sigma-Aldrich #11429868001), and protease/phosphatase inhibitor tablet (Thermo Fisher #A32959)]. Lysates were clarified by centrifugation and 100 μL/well added into the PathScan phospho-Met (panTyr) Sandwich ELISA (Cell Signaling Technology #7333). Assay was performed according to manufacturer's instructions. Positive control wells (100% activity) contained HGF-stimulated, DMSO-treated cell lysates. Negative control wells (0% activity) contained HGF-stimulated, reference inhibitor-treated cell lysates. IC50 values were calculated by nonlinear regression analysis using a 4-parameter logistic curve fit in ActivityBase XE (IDBS).

The target of assay [4] is Mer (Homo sapiens (Human), UniProt Q12866). The experiment in a line: Mer autophosphorylation ELISA in transient transfected 293A cells. The following applies: cellular, MERTK-transfected 293A cells, phospho-Mer ELISA. The protocol:
293A cells (Thermo Fisher #R70507) were seeded at 1.5×10^6 cells/well onto 100 mm dish (Greiner #664169), in DMEM (Thermo Fisher #11995-040) containing 10% FBS (Thermo Fisher #26140-079), 1% MEM NEAA (Thermo Fisher #11140-050), 1% GlutaMax (Thermo Fisher #35050-061), and 1% Penicillin Streptomycin (Thermo Fisher #15140-122). 293A cells were incubated at 37° C., 5% CO2 for 24 h and then transfected with 6 μg MERTK DNA (Genecopoeia #EX-Z8208-M02) using TransIT LT1 transfection reagent (Mirus-Bio #MIR2305). After 24 h incubation, the transfected 293A cells were seeded at 1×10^5 cells/well onto 96-well plates (Corning #3904) in DMEM growth medium overnight. Test compounds were serially diluted to produce an 8-point dose curve in fresh serum-free medium to a final concentration of 0.3% DMSO (vehicle) and added to the cells and incubated for 1 h. Cells were then immediately lysed with 150 μL of cold 1× lysis buffer [20 mM Tris, 137 mM sodium chloride, 2 mM EDTA, 10% glycerol, 1% NP-40 alternative, 1 mM activated sodium orthovanadate, 1 mM PefaBloc SC (Sigma-Aldrich #11429868001), protease/phosphatase inhibitor tablet (Thermo Fisher #A32959)]. Lysates were clarified by centrifugation and 50 μL/well added into the human phospho-Mer DuoSet IC ELISA (R&D Systems #DYC2579-2). Assay was performed according to manufacturer's instructions and sample phospho-Mer concentrations were extrapolated using human phospho-Mer control (R&D Systems #841793) as a standard. Positive control wells (100% activity) contained DMSO-treated cell lysates. Negative control wells (0% activity) contained reference inhibitor-treated cell lysates. IC50 values were calculated by nonlinear regression analysis using a 4-parameter logistic curve fit in ActivityBase XE (IDBS).

Sequence of Mer (Q12866 21-999): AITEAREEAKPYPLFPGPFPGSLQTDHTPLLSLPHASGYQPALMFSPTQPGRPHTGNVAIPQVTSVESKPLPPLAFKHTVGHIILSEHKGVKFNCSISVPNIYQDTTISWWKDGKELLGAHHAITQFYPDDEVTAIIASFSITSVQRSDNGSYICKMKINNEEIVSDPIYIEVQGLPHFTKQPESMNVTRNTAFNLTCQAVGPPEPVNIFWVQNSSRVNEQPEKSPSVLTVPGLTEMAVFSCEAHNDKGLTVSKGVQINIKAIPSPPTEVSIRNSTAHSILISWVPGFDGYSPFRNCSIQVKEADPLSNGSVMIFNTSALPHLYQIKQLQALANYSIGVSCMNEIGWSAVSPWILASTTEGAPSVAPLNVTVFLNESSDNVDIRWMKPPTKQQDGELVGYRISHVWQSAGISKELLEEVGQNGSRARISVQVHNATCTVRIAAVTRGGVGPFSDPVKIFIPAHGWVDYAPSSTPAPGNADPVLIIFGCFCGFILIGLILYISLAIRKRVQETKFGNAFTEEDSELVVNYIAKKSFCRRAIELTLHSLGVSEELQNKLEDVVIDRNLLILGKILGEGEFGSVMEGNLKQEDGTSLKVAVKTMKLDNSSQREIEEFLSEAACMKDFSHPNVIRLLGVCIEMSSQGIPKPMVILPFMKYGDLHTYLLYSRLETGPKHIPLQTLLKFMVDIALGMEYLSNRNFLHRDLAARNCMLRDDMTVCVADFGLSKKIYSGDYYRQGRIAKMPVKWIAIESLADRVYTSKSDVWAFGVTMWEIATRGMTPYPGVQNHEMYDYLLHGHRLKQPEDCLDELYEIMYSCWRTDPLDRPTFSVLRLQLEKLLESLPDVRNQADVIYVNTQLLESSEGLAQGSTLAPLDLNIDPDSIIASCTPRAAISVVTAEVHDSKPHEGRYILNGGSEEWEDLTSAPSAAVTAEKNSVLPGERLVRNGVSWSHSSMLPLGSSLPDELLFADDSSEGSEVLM
Sequence of AXL (P30530 26-894): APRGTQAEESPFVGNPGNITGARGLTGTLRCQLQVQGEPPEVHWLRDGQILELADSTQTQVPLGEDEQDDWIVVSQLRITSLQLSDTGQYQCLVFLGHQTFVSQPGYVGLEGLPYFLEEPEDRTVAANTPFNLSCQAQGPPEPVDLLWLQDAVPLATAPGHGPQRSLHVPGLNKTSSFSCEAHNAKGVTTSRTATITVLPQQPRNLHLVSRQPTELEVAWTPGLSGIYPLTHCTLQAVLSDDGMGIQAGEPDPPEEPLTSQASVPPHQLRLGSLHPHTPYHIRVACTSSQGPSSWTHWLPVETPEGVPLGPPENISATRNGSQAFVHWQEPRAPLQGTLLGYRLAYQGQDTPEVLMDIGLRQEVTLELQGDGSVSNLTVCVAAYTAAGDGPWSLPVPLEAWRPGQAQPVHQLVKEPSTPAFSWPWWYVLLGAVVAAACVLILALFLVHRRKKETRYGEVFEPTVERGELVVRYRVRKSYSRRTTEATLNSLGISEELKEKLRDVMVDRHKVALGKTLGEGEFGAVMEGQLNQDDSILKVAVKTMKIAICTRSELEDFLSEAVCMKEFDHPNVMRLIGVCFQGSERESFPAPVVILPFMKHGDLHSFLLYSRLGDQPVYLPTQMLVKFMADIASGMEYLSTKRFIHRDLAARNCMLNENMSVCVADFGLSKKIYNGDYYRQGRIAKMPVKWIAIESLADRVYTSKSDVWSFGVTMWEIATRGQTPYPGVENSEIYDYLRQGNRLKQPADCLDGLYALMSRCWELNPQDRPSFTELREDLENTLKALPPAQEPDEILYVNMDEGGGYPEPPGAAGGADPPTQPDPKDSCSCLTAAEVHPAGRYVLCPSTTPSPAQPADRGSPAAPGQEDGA
Sequence of Met (P08581 25-1390): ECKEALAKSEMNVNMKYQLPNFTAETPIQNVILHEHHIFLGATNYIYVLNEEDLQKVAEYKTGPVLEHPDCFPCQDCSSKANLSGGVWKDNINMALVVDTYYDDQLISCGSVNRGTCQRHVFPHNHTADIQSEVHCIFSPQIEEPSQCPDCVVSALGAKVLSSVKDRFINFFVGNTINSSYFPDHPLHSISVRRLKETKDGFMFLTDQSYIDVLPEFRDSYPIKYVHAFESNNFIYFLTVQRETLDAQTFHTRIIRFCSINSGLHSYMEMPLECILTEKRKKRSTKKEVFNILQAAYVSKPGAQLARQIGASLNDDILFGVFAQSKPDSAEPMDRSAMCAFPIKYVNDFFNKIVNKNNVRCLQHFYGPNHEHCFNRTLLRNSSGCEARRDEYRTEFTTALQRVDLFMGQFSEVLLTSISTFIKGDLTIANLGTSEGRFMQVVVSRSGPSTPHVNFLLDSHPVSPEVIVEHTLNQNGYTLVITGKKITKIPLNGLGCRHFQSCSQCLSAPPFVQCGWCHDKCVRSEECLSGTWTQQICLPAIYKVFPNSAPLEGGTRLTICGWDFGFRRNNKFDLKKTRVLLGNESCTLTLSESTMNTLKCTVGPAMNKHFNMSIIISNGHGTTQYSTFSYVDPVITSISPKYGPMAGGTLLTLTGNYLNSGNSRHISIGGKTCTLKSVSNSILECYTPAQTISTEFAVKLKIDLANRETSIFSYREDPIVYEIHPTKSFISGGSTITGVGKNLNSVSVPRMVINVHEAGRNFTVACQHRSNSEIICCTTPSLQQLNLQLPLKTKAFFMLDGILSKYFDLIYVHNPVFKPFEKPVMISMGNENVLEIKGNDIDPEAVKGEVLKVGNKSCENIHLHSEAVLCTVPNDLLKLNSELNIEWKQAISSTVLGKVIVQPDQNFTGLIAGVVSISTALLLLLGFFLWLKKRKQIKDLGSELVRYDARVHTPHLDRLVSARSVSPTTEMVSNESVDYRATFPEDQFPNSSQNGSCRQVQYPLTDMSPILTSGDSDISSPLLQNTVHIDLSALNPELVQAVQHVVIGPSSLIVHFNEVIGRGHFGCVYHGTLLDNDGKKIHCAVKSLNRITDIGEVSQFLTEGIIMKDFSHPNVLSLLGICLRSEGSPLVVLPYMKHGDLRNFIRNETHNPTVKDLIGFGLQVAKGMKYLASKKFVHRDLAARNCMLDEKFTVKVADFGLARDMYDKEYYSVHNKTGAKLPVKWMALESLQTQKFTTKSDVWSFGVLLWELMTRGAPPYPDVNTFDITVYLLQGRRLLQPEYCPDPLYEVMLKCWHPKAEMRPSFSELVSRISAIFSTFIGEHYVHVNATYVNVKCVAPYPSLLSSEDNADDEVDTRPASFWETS

The term IC50 denotes the point on the concentration scale where inhibition reaches its midpoint. On to `COc1nc2c(Oc3ccc(NC(=O)C4(C(=O)Nc5ccc(F)cc5)CC4)cn3)ncnc2cc1OCCCN1CCOCC1` [Compound 155, 1-N-(4-Fluorophenyl)-1-N′-[6-[6-methoxy-7-(3-morpholin-4-ylpropoxy)pyrido[3,2-d]pyrimidin-4-yl]oxypyridin-3-yl]cyclopropane-1,1-dicarboxamide], for which the IC50 in assay [1] is > 300 nM; in assay [2] it was 10 to 100 nM; in assay [3] it was 100 to 300 nM; in assay [4], 100 to 300 nM.
`CNC(=O)c1cc2c(Oc3ncc(NC(=O)C4(C(=O)Nc5ccc(F)cc5)CC4)cc3F)ccnc2cc1OC` [Compound 22, 1-N′-[5-Fluoro-6-[7-methoxy-6-(methylcarbamoyl)quinolin-4-yl]oxypyridin-3-yl]-1-N-(4-fluorophenyl)cyclopropane-1,1-dicarboxamide]: the IC50 is > 300 nM in assay [1], ≤ 10 nM in assay [2], 10 to 100 nM in assay [3] and 10 to 100 nM in assay [4].
Consider `COc1nc2c(Oc3ncc(NC(=O)C4(C(=O)Nc5ccc(F)cc5)CC4)cc3F)ccnc2cc1OCCCN(C)C` [Compound 125, 1-N′-[6-[[7-[3-(Dimethylamino)propoxy]-6-methoxy-1,5-naphthyridin-4-yl]oxy]-5-fluoropyridin-3-yl]-1-N-(4-fluorophenyl)cyclopropane-1,1-dicarboxamide], for which the 50% inhibitory concentration (IC50) is > 300 nM in assay [1], 10 to 100 nM in assay [2], 10 to 100 nM in assay [3] and 10 to 100 nM in assay [4].
On to `COc1cc2nccc(Oc3ncc(NC(=O)C4(C(=O)Nc5ccc(F)cc5)CC4)cc3Cl)c2cc1-c1ncco1` [Compound 64, 1-N′-[5-Chloro-6-[7-methoxy-6-(1,3-oxazol-2-yl)quinolin-4-yl]oxypyridin-3-yl]-1-N-(4-fluorophenyl)cyclopropane-1,1-dicarboxamide], for which the IC50 in assay [1] was > 300 nM; in assay [2] it was ≤ 10 nM; in assay [3] it was 10 to 100 nM; in assay [4], 10 to 100 nM.
As to `COc1nc2c(Oc3ncc(NC(=O)C4(C(=O)Nc5ccc(F)cc5)CC4)cc3F)ccnc2cc1OCC(O)CO` (stereo not drawn) [Compound 127, 1-N′-[6-[[7-(2,3-Dihydroxypropoxy)-6-methoxy-1,5-naphthyridin-4-yl]oxy]-5-fluoropyridin-3-yl]-1-N-(4-fluorophenyl)cyclopropane-1,1-dicarboxamide], the IC50 was > 300 nM in assay [1], 10 to 100 nM in assay [2], 10 to 100 nM in assay [3] and 100 to 300 nM in assay [4].
`NC(=O)c1cc2c(Oc3ncc(NC(=O)C4(C(=O)Nc5ccc(F)cc5)CC4)cc3F)ccnc2cc1OCCO` [Compound 39, 1-N′-[6-[6-Carbamoyl-7-(2-hydroxyethoxy)quinolin-4-yl]oxy-5-fluoropyridin-3-yl]-1-N-(4-fluorophenyl)cyclopropane-1,1-dicarboxamide]: the IC50 in assay [1] is > 300 nM; in assay [2] it was 10 to 100 nM; in assay [3], 10 to 100 nM; in assay [4] it was 100 to 300 nM.
With `COc1cc2nccc(Oc3ccc(NC(=O)C4(C(=O)Nc5ccc(F)cc5)CC4)c(C)n3)c2nc1OC` [Compound 87, 1-N′-[6-[(6,7-Dimethoxy-1,5-naphthyridin-4-yl)oxy]-2-methylpyridin-3-yl]-1-N-(4-fluorophenyl)cyclopropane-1,1-dicarboxamide], the IC50 in assay [1] was > 300 nM; in assay [2] it was 10 to 100 nM; in assay [3], > 300 nM; in assay [4], > 300 nM.
`COc1ccc(COc2cc3nccc(Oc4ncc(NC(=O)C5(C(=O)Nc6ccc(F)cc6)CC5)cc4F)c3nc2OC)cc1` [Compound 120, 1-N′-[5-Fluoro-6-[[6-methoxy-7-[(4-methoxyphenyl)methoxy]-1,5-naphthyridin-4-yl]oxy]pyridin-3-yl]-1-N-(4-fluorophenyl)cyclopropane-1,1-dicarboxamide]: the IC50 in assay [1] was > 300 nM; in assay [2] it was 100 to 300 nM; in assay [3], 100 to 300 nM; in assay [4], > 300 nM.
As to `COc1nc2c(Oc3ncc(NC(=O)C4(C(=O)Nc5ccc(F)cc5)CC4)cc3F)ccnc2cc1OCC(N)=O` [Compound 124, 1-N′-[6-[[7-(2-Amino-2-oxoethoxy)-6-methoxy-1,5-naphthyridin-4-yl]oxy]-5-fluoropyridin-3-yl]-1-N-(4-fluorophenyl)cyclopropane-1,1-dicarboxamide], the IC50 in assay [1] was > 300 nM; in assay [2], 100 to 300 nM; in assay [3], 100 to 300 nM; in assay [4], 100 to 300 nM.
Consider `COCCOc1nc2c(Oc3ncc(NC(=O)C4(C(=O)Nc5ccc(F)cc5)CC4)cc3F)ccnc2cc1OC` [Compound 134, 1-N′-[5-Fluoro-6-[[7-methoxy-6-(2-methoxyethoxy)-1,5-naphthyridin-4-yl]oxy]pyridin-3-yl]-1-N-(4-fluorophenyl)cyclopropane-1,1-dicarboxamide], for which the IC50 in assay [1], in assay [2] and in assay [3] was > 300 nM each time.
